Test results from EP4775575A1, “COMPOUND USED AS CDK4 KINASE INHIBITOR AND USE THEREOF” (TYK Medicines, Inc., priority 2023, dated 2025).

Assays:
CDK4/CycD1 = CDK4/CycD1 (Homo sapiens, UniProt P11802); test: Kinase activity assay (MSA, EZ Reader) against CDK4
[1] = system: human mantle cell lymphoma cells JEKO-1; test: Cell anti-proliferation assay (MTT), JEKO-1; format: cell-based; conditions: Homo sapiens, 120 h, JEKO-1 cells, incubated for 5 days
Procedure, shortened: (§1)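 Cells in DMEM with 10% FBS were seeded at 50,000 cells/mL and grown overnight at 37 °C, 5% CO2, then treated at 9 concentrations (3-fold serial dilution, 0.1% DMSO medium). MTT was added for 3 h, formazan dissolved in acidified isopropanol/NP-40, and absorbance read at 570 nm.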

[2] = Preclinical pharmacokinetic study in rats; format: in vivo, Sprague-Dawley (SD) rats; conditions: male SD rats, oral gavage (p.o.) 10 mg/kg, plasma; for AUC(0-t) / Cmax / Tmax: Sprague-Dawley, rat
Experimental: Healthy adult Sprague-Dawley (SD) rats, male, 6-8 weeks old, weighing 200-300 g. EDTA-Na2 anticoagulant. Analytical balance, animal weighing scale, magnetic stirrer, refrigerated centrifuge, single-channel manual pipette, etc. About 10 mg of the test sample was precisely weighed, dissolved in a calculated volume of 5% DMSO, followed by addition of 10% solutol HS-15 and 85% normal saline. The mixture was sonicated and vortexed to homogeneity to obtain a solution with a concentration of 1 mg/mL. The solution was freshly prepared before use. Animals were housed in rat cages and fasted overnight (no less than 10 h) before the test, with free access to water. On the day of the test, animals were weighed and marked on the tail. Blank blood samples were collected before administration. The blood was collected via tail vein. • Route of administration: oral gavage (p.o.) • Dose: 10 mg/kg • Dosing volume: 10 mL/kg • Procedure: The rat was held upright with the left hand wearing bite-resistant glove. A 16-gauge gavage needle was inserted through the mouth into the esophagus. The needle was advanced gently without obvious resistance, and the drug solution was injected into the stomach. Whole blood (0.1 mL) were collected from each test animal before administration and at 0.5 […], and 24 h after administration into EDTA-Na2 anticoagulant tubes. The tubes were inverted 3-4 times for mixing, then centrifuged at 10,000 g for 5 min at 4 °C to separate plasma. Plasma samples were stored at -80 °C until analysis. Blood was collected via tail vein. […] The mixture was vortexed for 2 min and centrifuged at 10,000 g for 10 min at 4 °C. Processing of unknown plasma samples: 25 μL of drug-containing rat plasma was transferred, followed by addition of 25 μL of methanol and 200 μL of internal standard solution. The mixture was vortexed for 2 min and centrifuged at 10,000 g for 10 min at 4 °C. The supernatant was collected for LC-MS/MS analysis. A quantitative method for the determination of the test compound was established using a Shimadzu liquid chromatography system coupled with Triple Quad^TM 6500+ AB mass spectrometer. The concentration of the parent drug in plasma was determined. The plasma concentration-time curve was plotted, and the main pharmacokinetic parameters were calculated using a non-compartmental model in winnonlin Phoenix software.

[3] = system: Human breast cancer cells MCF-7; test: Cell anti-proliferation assay (MTT), MCF-7; format: cell-based; conditions: Homo sapiens, MCF7, 120 h, MCF-7 cells, incubated for 5 days
Procedure, shortened: as §1

CDK6/CyclinD3 = target: T1, CDK6/CyclinD3 (Homo sapiens, UniProt Q00534); test: Kinase activity assay (MSA, EZ Reader) against CDK6; format: biochemical; conditions: CDK6/CyclinD3 5.00 nM, ATP 350 µM, FL-Peptide34, 10mM MgCl2
T1 construct: purchased Carna 04-107
T1 sequence (Q00534 whole entry): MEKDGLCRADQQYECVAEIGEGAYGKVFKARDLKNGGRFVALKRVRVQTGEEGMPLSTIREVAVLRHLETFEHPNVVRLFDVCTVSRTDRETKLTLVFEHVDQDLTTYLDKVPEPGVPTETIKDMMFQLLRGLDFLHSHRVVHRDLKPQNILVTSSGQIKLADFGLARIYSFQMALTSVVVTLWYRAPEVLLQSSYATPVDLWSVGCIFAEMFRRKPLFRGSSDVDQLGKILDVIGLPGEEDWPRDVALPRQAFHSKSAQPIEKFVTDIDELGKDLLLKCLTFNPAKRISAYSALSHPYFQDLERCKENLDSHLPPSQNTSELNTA
T1 sequence (P30281 whole entry partner): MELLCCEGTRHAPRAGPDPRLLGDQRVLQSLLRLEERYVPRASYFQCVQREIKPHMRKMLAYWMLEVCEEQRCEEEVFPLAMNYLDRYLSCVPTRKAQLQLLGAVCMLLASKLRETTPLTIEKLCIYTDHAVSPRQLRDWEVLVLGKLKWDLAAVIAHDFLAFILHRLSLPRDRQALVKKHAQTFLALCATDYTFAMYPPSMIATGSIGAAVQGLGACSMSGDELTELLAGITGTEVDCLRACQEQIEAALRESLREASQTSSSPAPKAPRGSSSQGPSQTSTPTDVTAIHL

[4] = system: human ovarian cancer cells A2780; test: Cell anti-proliferation assay (MTT), A2780; format: cell-based; conditions: Homo sapiens, 120 h, incubated for 5 days
Procedure, shortened: as §1

Chain of CDK4/CycD1 (P11802 whole entry): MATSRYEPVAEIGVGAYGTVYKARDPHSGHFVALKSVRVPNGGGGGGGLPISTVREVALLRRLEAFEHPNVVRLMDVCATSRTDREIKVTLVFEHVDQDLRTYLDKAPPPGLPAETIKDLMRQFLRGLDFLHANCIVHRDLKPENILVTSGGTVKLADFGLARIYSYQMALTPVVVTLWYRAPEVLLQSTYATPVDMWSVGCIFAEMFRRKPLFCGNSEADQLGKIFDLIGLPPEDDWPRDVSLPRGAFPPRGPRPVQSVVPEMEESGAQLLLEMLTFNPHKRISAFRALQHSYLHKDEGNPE

SMILES	IC50 (CDK4/CycD1)	IC50 [1]	AUC(0-t) [2]	Cmax [2]	Tmax [2]	HL_ [2]	IC50 [3]	IC50 (CDK6/CyclinD3)	IC50 [4]
CC(C)n1c(N2CCOCC2)nc2c(F)cc(-c3nc(N[C@@H]4CCOC[C@H]4O)ncc3Cl)cc21 [TB-12, (3S,4R)-4-((5-chloro-4-(4-fluoro-1-isopropyl-2-morpholino-1H-benzo[d]imidazol-6-yl)pyrimidin-2-yl)amino)tetrahydro-2H-pyran-3-ol]	6.01 nM	≤ 500 nM	4500 ng·h/mL	677 ng/mL	1.5 h	3.14 h	≤ 500 nM	151 nM	≤ 500 nM
CCS(=O)(=O)N1CCC(Nc2ncc(Cl)c(-c3cc(F)c4nc(N5CCOC5=O)n(C(C)C)c4c3)n2)CC1 [TB-31]	15.3 nM	≤ 500 nM	4890 ng·h/mL	923 ng/mL	4 h	1.34 h	≤ 500 nM	182 nM	≤ 500 nM
C[C@H]1CCN(c2ccccc2)c2nc3c(F)cc(-c4nc(N[C@@H]5CCOC[C@H]5O)ncc4Cl)cc3n21 [TA-33]	3.4 nM	–	2170 ng·h/mL	262 ng/mL	4.67 h	–	–	94.2 nM	–
C[C@H]1CCN(C)c2nc3c(F)cc(-c4nc(Nc5ccncc5)ncc4Cl)cc3n21 [TB-137, (S)-5-chloro-4-(9-fluoro-1,4-dimethyl-1,2,3,4-tetrahydrobenzo[4,5]imidazo[1,2-a]pyrimidin-7-yl)-N-(pyridin-4-yl)pyrimidin-2-amine]	28.3 nM	≤ 500 nM	3670 ng·h/mL	1240 ng/mL	0.83 h	4.10 h	≤ 500 nM	175 nM	≤ 500 nM
C[C@H]1CCN(c2ccccc2F)c2nc3c(F)cc(-c4nc(N[C@@H]5CCOC[C@H]5O)ncc4Cl)cc3n21 [TC-12]	1.9 nM	≤ 500 nM	1290 ng·h/mL	417 ng/mL	1 h	2.55 h	≤ 500 nM	45.7 nM	≤ 500 nM
CC(C)n1c(N2CCOC2=O)nc2c(F)cc(-c3nc(N[C@@H]4CCOC[C@H]4O)ncc3Cl)cc21 [TB-24]	10.1 nM	≤ 500 nM	4500 ng·h/mL	677 ng/mL	1.67 h	3.14 h	≤ 500 nM	143 nM	≤ 500 nM
CC(C)n1c(N2CCCC2)nc2c(F)cc(-c3nc(N[C@@H]4CCOC[C@H]4O)ncc3Cl)cc21 [TB-11, (3S,4R)-4-((5-chloro-4-(4-fluoro-1-isopropyl-2-(pyrrolidin-1-yl)-1H-benzo[d]imidazol-6-yl)pyrimidin-2-yl)amino)tetrahydro-2H-pyran-3-ol]	6.45 nM	≤ 500 nM	–	–	–	–	≤ 500 nM	202 nM	≤ 500 nM
CC(C)n1c(N2CC[C@H](O)C2)nc2c(F)cc(-c3nc(N[C@@H]4CCOC[C@H]4O)ncc3Cl)cc21 [TB-6, (S)-1-(6-(5-chloro-2-(((3S,4R)-3-hydroxytetrahydro-2H-pyran-4-yl)amino)pyrimidin-4-yl)-4-fluoro-1-isopropyl-1H-benzo[d]imidazol-2-yl)pyrrolidin-3-ol]	10.8 nM	≤ 500 nM	–	–	–	–	500 to 2000 nM	190 nM	≤ 500 nM
CC(C)n1c(N2CCCOC2=O)nc2c(F)cc(-c3nc(N[C@@H]4CCOC[C@H]4O)ncc3Cl)cc21 [TB-25]	43.4 nM	≤ 500 nM	–	–	–	–	500 to 2000 nM	> 500 nM	≤ 500 nM
CC(C)n1c(N2CCOC2=O)nc2c(F)cc(-c3nc(NC4CCN(S(C)(=O)=O)CC4(F)F)ncc3Cl)cc21 (stereo not drawn) [TB-35]	15.5 nM	≤ 500 nM	–	–	–	–	≤ 500 nM	167 nM	≤ 500 nM
CC(C)n1c(N2CCOC2=O)nc2c(F)cc(-c3nc(Nc4ccc(S(=O)(=O)NCCN(C)C)cc4)nc4[nH]cnc34)cc21 [TB-70]	18.5 nM	≤ 500 nM	–	–	–	–	≤ 500 nM	76.6 nM	≤ 500 nM
